Test system: cells infected with the SF1 gene or the SF1+MC2R+MRAP genes
Assay: ACTH stimulation of hiSCs: cortisol and aldosterone secretion
Format: cell-based, human
Conditions: ACTH 0 nM, 10 nM

With “adrenocorticotropic hormone (SYSMEHFRWGKPVGKKRRPVKVYPNGAEDESAEAFPLEF; Corticotropin; UniProt P01189 138-176, looked up) [ACTH, hormone secreted by the anterior pituitary gland, used to stimulate the cells]” the production/secretion of cortisol (1 uM (FIG. 15B)) was “increasing with administration of increasing ACTH dosage” and the production/secretion of aldosterone (1 uM (FIG. 15C)) was “increasing with administration of increasing ACTH dosage”.

From patent US20250277187A1, “A METHOD FOR PRODUCING INDUCED STEROIDOGENIC CELLS AND USE THEREOF IN CELL THERAPY” (TECHNISCHE UNIVERSITAET DRESDEN, priority 2021, published 2025)
